# Experimental data from PubChem BioAssay (NCI).
#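 These data come from cells grown in 96-well plates and exposed to compound for 48 hours at five concentrations. TGI denotes the concentration required for complete inhibition of growth.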
# Assays:
# Test in all cases: growth of human tumour cells (NCI), 48 h
# 786-0 renal = tested on: 786-0 renal
# A498 renal = tested on: A498 renal
# A549 NSCLC = tested on: A549 NSCLC
# ACHN renal = tested on: ACHN renal
# BT-549 breast = tested on: BT-549 breast
# CAKI-1 renal = tested on: CAKI-1 renal
# CCRF-CEM leukemia = tested on: CCRF-CEM leukemia
# COLO 205 colon = tested on: COLO 205 colon
# DU-145 prostate = tested on: DU-145 prostate
# EKVX NSCLC = tested on: EKVX NSCLC
# HCC-2998 colon = tested on: HCC-2998 colon
# HCT-116 colon = tested on: HCT-116 colon
# HCT-15 colon = tested on: HCT-15 colon
# HL-60(TB) leukemia = tested on: HL-60(TB) leukemia
# HOP-62 NSCLC = tested on: HOP-62 NSCLC
# HOP-92 NSCLC = tested on: HOP-92 NSCLC
# HS 578T breast = tested on: HS 578T breast
# HT29 colon = tested on: HT29 colon
# IGROV1 ovarian = tested on: IGROV1 ovarian
# K-562 leukemia = tested on: K-562 leukemia
# KM12 colon = tested on: KM12 colon
# LOX IMVI melanoma = tested on: LOX IMVI melanoma
# M14 melanoma = tested on: M14 melanoma
# MDA-MB-231 breast = tested on: MDA-MB-231 breast
# MDA-MB-435 = tested on: MDA-MB-435
# MDA-N = tested on: MDA-N
# MOLT-4 leukemia = tested on: MOLT-4 leukemia
# NCI-H226 lung = tested on: NCI-H226 lung
# NCI-H23 lung = tested on: NCI-H23 lung
# NCI-H460 lung = tested on: NCI-H460 lung
# NCI/ADR-RES ovarian = tested on: NCI/ADR-RES ovarian
# OVCAR-4 ovarian = tested on: OVCAR-4 ovarian
# OVCAR-5 ovarian = tested on: OVCAR-5 ovarian
# OVCAR-8 ovarian = tested on: OVCAR-8 ovarian
# PC-3 prostate = tested on: PC-3 prostate
# RPMI-8226 leukemia = tested on: RPMI-8226 leukemia
# RXF 393 renal = tested on: RXF 393 renal
# SF-268 CNS = tested on: SF-268 CNS
# SF-295 CNS = tested on: SF-295 CNS
# SF-539 CNS = tested on: SF-539 CNS
# SK-MEL-2 melanoma = tested on: SK-MEL-2 melanoma
# SK-MEL-28 melanoma = tested on: SK-MEL-28 melanoma
# SK-MEL-5 melanoma = tested on: SK-MEL-5 melanoma
# SK-OV-3 ovarian = tested on: SK-OV-3 ovarian
# SN12C renal = tested on: SN12C renal
# SNB-19 CNS = tested on: SNB-19 CNS
# SNB-75 CNS = tested on: SNB-75 CNS
# SR leukemia = tested on: SR leukemia
# SW-620 colon = tested on: SW-620 colon
# T-47D breast = tested on: T-47D breast
# TK-10 renal = tested on: TK-10 renal
# U251 CNS = tested on: U251 CNS
# UACC-257 melanoma = tested on: UACC-257 melanoma
# UACC-62 melanoma = tested on: UACC-62 melanoma
# UO-31 renal = tested on: UO-31 renal
# MALME-3M melanoma = tested on: MALME-3M melanoma
# MCF7 breast = tested on: MCF7 breast
# NCI-H522 lung = tested on: NCI-H522 lung
# OVCAR-3 ovarian = tested on: OVCAR-3 ovarian
compound,measurement,setting,value
O=[N+]([O-])c1cc2no[n+]([O-])c2cc1N1CCCCC1,TGI,786-0 renal,2.62 µM
same,TGI,A498 renal,35.2 µM
same,TGI,A549 NSCLC,42.8 µM
same,TGI,ACHN renal,7.21 µM
same,TGI,BT-549 breast,45.2 µM
same,TGI,CAKI-1 renal,12.5 µM
same,TGI,CCRF-CEM leukemia,> 100 µM
same,TGI,COLO 205 colon,30.4 µM
same,TGI,DU-145 prostate,6.18 µM
same,TGI,EKVX NSCLC,8.98 µM
same,TGI,HCC-2998 colon,33.1 µM
same,TGI,HCT-116 colon,5.99 µM
same,TGI,HCT-15 colon,11.9 µM
same,TGI,HL-60(TB) leukemia,5.29 µM
same,TGI,HOP-62 NSCLC,31.3 µM
same,TGI,HOP-92 NSCLC,7.04 µM
same,TGI,HS 578T breast,72.5 µM
same,TGI,HT29 colon,3.86 µM
same,TGI,IGROV1 ovarian,8.83 µM
same,TGI,K-562 leukemia,7.98 µM
same,TGI,KM12 colon,30.5 µM
same,TGI,LOX IMVI melanoma,4.81 µM
same,TGI,M14 melanoma,7.19 µM
same,TGI,MDA-MB-231 breast,44.3 µM
same,TGI,MDA-MB-435,9.44 µM
same,TGI,MDA-N,7.06 µM
same,TGI,MOLT-4 leukemia,4.95 µM
same,TGI,NCI-H226 lung,> 100 µM
same,TGI,NCI-H23 lung,43.4 µM
same,TGI,NCI-H460 lung,56.6 µM
same,TGI,NCI/ADR-RES ovarian,> 20.8 µM
same,TGI,OVCAR-4 ovarian,8.37 µM
same,TGI,OVCAR-5 ovarian,24.8 µM
same,TGI,OVCAR-8 ovarian,5.74 µM
same,TGI,PC-3 prostate,5.68 µM
same,TGI,RPMI-8226 leukemia,6.64 µM
same,TGI,RXF 393 renal,3.29 µM
same,TGI,SF-268 CNS,41.2 µM
same,TGI,SF-295 CNS,34.8 µM
same,TGI,SF-539 CNS,> 20.1 µM
same,TGI,SK-MEL-2 melanoma,30.5 µM
same,TGI,SK-MEL-28 melanoma,32.9 µM
same,TGI,SK-MEL-5 melanoma,41.7 µM
same,TGI,SK-OV-3 ovarian,27.4 µM
same,TGI,SN12C renal,4.34 µM
same,TGI,SNB-19 CNS,35.5 µM
same,TGI,SNB-75 CNS,9.8 µM
same,TGI,SR leukemia,12.2 µM
same,TGI,SW-620 colon,> 100 µM
same,TGI,T-47D breast,5.53 µM
same,TGI,TK-10 renal,9.08 µM
same,TGI,U251 CNS,20.2 µM
same,TGI,UACC-257 melanoma,> 36.1 µM
same,TGI,UACC-62 melanoma,33.8 µM
same,TGI,UO-31 renal,6.16 µM
COC(=O)c1cc(OC)c(OC)c(OC)c1-c1cc2c(cc1C=O)OCO2,TGI,786-0 renal,> 10 µM
same,TGI,A498 renal,> 10 µM
same,TGI,A549 NSCLC,> 10 µM
same,TGI,ACHN renal,> 10 µM
same,TGI,BT-549 breast,> 10 µM
same,TGI,CAKI-1 renal,> 10 µM
same,TGI,CCRF-CEM leukemia,> 10 µM
same,TGI,COLO 205 colon,> 10 µM
same,TGI,DU-145 prostate,> 10 µM
same,TGI,EKVX NSCLC,> 10 µM
same,TGI,HCC-2998 colon,> 10 µM
same,TGI,HCT-116 colon,> 10 µM
same,TGI,HCT-15 colon,> 10 µM
same,TGI,HL-60(TB) leukemia,> 10 µM
same,TGI,HOP-62 NSCLC,> 10 µM
same,TGI,HOP-92 NSCLC,> 10 µM
same,TGI,HS 578T breast,> 10 µM
same,TGI,HT29 colon,> 10 µM
same,TGI,IGROV1 ovarian,> 10 µM
same,TGI,K-562 leukemia,> 10 µM
same,TGI,KM12 colon,> 10 µM
same,TGI,LOX IMVI melanoma,> 10 µM
same,TGI,M14 melanoma,> 10 µM
same,TGI,MALME-3M melanoma,> 10 µM
same,TGI,MCF7 breast,> 10 µM
same,TGI,MDA-MB-231 breast,> 10 µM
same,TGI,MDA-MB-435,> 10 µM
same,TGI,MDA-N,> 10 µM
same,TGI,MOLT-4 leukemia,> 10 µM
same,TGI,NCI-H226 lung,> 10 µM
same,TGI,NCI-H23 lung,> 10 µM
same,TGI,NCI-H460 lung,> 10 µM
same,TGI,NCI-H522 lung,> 10 µM
same,TGI,NCI/ADR-RES ovarian,> 10 µM
same,TGI,OVCAR-3 ovarian,> 10 µM
same,TGI,OVCAR-4 ovarian,> 10 µM
same,TGI,OVCAR-5 ovarian,> 10 µM
same,TGI,OVCAR-8 ovarian,> 10 µM
same,TGI,PC-3 prostate,> 10 µM
same,TGI,RPMI-8226 leukemia,> 10 µM
same,TGI,RXF 393 renal,> 10 µM
same,TGI,SF-268 CNS,> 10 µM
same,TGI,SF-295 CNS,> 10 µM
same,TGI,SF-539 CNS,> 10 µM
same,TGI,SK-MEL-2 melanoma,> 10 µM
same,TGI,SK-MEL-28 melanoma,> 10 µM
same,TGI,SK-MEL-5 melanoma,> 10 µM
same,TGI,SK-OV-3 ovarian,> 10 µM
same,TGI,SN12C renal,> 10 µM
same,TGI,SNB-19 CNS,> 10 µM
same,TGI,SNB-75 CNS,> 10 µM
same,TGI,SW-620 colon,> 10 µM
same,TGI,T-47D breast,> 10 µM
same,TGI,TK-10 renal,> 10 µM
same,TGI,U251 CNS,> 10 µM
same,TGI,UACC-257 melanoma,> 10 µM
same,TGI,UACC-62 melanoma,> 10 µM
same,TGI,UO-31 renal,> 10 µM
